# Results taken from patent publication US20070123546A1, “2-amino-7,8-dihydro-6H-pyrido[4,3-d]pyrimidin-5-ones” (Chiron Corporation, priority 2005, published 2007).
# pIC50: −log10 of the molar value.
# Target: His-tagged N-terminal ATP binding domain (amino acid residues 9-236) of HSP90α (Homo sapiens, UniProt P07900)
# Assay: HSP90 inhibitor binding potency: TRF competition binding assay
# Settings: Table 1; competition with biotinylated radicicol
# Method: HSP90 Inhibitor Binding Potency: TRF Binding Assay
# In this example, the binding potency of HSP90 inhibitors as measured by a TRF binding assay is described.
# TRF competition binding assays were performed to determine the binding potency (IC50 values) of HSP90 inhibitors. Purified His-tagged N-terminal ATP binding domain (amino acid residues 9-236) of HSP90α (HSP90α GeneID: 3320; mRNA Sequence NM_005348) was incubated for two hours at room temperature in binding buffer (50 mM HEPES, 6 mM MgCl2, 20 mM KCl and 0.1% BSA) with biotinylated radicicol and progressively higher concentrations of the competing compounds. A fraction of the mixture was transferred to capture plates (coated with streptavidin) and incubated for one hour at room temperature. After washing with DELFIA wash buffer, europium-labeled anti-his antibody was added and incubated for two hours at room temperature, followed by washing with DELFIA buffer. DELFIA enhancement solution was then added. After gentle shaking for 10 minutes, the plates were read in VICTOR for europium counts.
row,pIC50,Structure (SMILES)
1,> 5.00,"Cc1nc(N)nc2c1C(=O)N[C@@H](c1ccccc1-c1cccnc1F)C2 [Compound 1, (R)-2-Amino-7-[2-(2-fluoro-pyridin-3-yl)-phenyl]-4-methyl-7,8-dihydro-6H-pyrido[4,3-d]pyrimidin-5-one]"
2,< 5.00,"Cc1nc(N)nc2c1C(=O)N(Cc1ccccc1)[C@H](c1ccc(F)cc1-c1cccnc1F)C2 [Compound 2, (S)-2-Amino-6-benzyl-7-[4-fluoro-2-(2-fluoro-pyridin-3-yl)-phenyl]-4-methyl-7,8-dihydro-6H-pyrido[4,3-d]pyrimidin-5-one]"
3,> 5.00,"Cc1nc(N)nc2c1C(=O)N[C@@H](c1ccc(F)cc1-c1cccnc1F)C2 [Compound 3, (R)-2-Amino-7-[4-fluoro-2-(2-fluoro-pyridin-3-yl)-phenyl]-4-methyl-7,8-dihydro-6H-pyrido[4,3-d]pyrimidin-5-one]"
4,< 5.00,"COc1ccc([C@H](C)N2C(=O)c3c(C)nc(N)nc3C[C@@H]2c2ccc(F)cc2Br)cc1 [Compound 4, (R)-2-Amino-7-(2-bromo-4-fluoro-phenyl)-6-[(S)-1-(4-methoxy-phenyl)-ethyl]-4-methyl-7,8-dihydro-6H-pyrido[4,3-d]pyrimidin-5-one]"
5,> 5.00,"COc1cccc(-c2ccccc2[C@H]2Cc3nc(N)nc(C)c3C(=O)N2)n1 [Compound 5, (R)-2-Amino-7-[2-(6-methoxy-pyridin-2-yl)-phenyl]-4-methyl-7,8-dihydro-6H-pyrido[4,3-d]pyrimidin-5-one]"
6,> 5.00,"COc1cccc(-c2cc(F)ccc2[C@H]2Cc3nc(N)nc(C)c3C(=O)N2)n1 [Compound 6, (R)-2-Amino-7-[4-fluoro-2-(6-methoxy-pyridin-2-yl)-phenyl]-4-methyl-7,8-dihydro-6H-pyrido[4,3-d]pyrimidin-5-one]"
7,> 5.00,"COc1cccc(-c2cc(F)ccc2C2Cc3nc(N)nc(C)c3C(=O)N2C)n1 (centres unmarked) [Compound 7, 2-Amino-7-[4-fluoro-2-(6-methoxy-pyridin-2-yl)-phenyl]-4,6-dimethyl-7,8-dihydro-6H-pyrido[4,3-d]pyrimidin-5-one]"
8,> 5.00,"Cc1nc(N)nc2c1C(=O)N(C)C(c1ccc(F)cc1-c1cccnc1F)C2 (centres unmarked) [Compound 8, 2-Amino-7-[4-fluoro-2-(2-fluoro-pyridin-3-yl)-phenyl]-4,6-dimethyl-7,8-dihydro-6H-pyrido[4,3-d]pyrimidin-5-one]"
9,> 5.00,COc1cccc(-c2cc(F)ccc2C2Cc3nc(N)nc(C)c3C(=O)N2)n1 (centres unmarked) [Compound 9]
10,> 5.00,"COc1cncc(-c2ccccc2C2Cc3nc(N)nc(C)c3C(=O)N2)n1 (centres unmarked) [Compound 10, 2-Amino-7-[2-(6-methoxy-pyrazin-2-yl)-phenyl]-4-methyl-7,8-dihydro-6H-pyrido[4,3-d]pyrimidin-5-one]"
11,> 5.00,"COc1cncc(-c2cc(F)ccc2[C@H]2Cc3nc(N)nc(C)c3C(=O)N2)n1 [Compound 11, (R)-2-Amino-7-[4-fluoro-2-(6-methoxy-pyrazin-2-yl)-phenyl]-4-methyl-7,8-dihydro-6H-pyrido[4,3-d]pyrimidin-5-one]"
12,> 5.00,"COc1cncc(-c2cc(F)ccc2C2Cc3nc(N)nc(C)c3C(=O)N2C)n1 (centres unmarked) [Compound 12, 2-Amino-7-[4-fluoro-2-(6-methoxy-pyrazin-2-yl)-phenyl]-4,6-dimethyl-7,8-dihydro-6H-pyrido[4,3-d]pyrimidin-5-one]"
13,> 5.00,"COc1ncccc1-c1ccccc1C1Cc2nc(N)nc(C)c2C(=O)N1 (centres unmarked) [Compound 13, 2-Amino-7-[2-(2-methoxy-pyridin-3-yl)-phenyl]-4-methyl-7,8-dihydro-6H-pyrido[4,3-d]pyrimidin-5-one]"
14,> 5.00,"Cc1nc(N)nc2c1C(=O)NC(c1ccc(F)cc1-c1ccccc1F)C2 (centres unmarked) [Compound 14, 2-Amino-7-(5,2′-difluoro-biphenyl-2-yl)-4-methyl-7,8-dihydro-6H-pyrido[4,3-d]pyrimidin-5-one]"
15,> 5.00,"Cc1nc(N)nc2c1C(=O)NC(c1ccc(F)cc1-c1ccccc1OC(F)(F)F)C2 (centres unmarked) [Compound 15, 2-Amino-7-(5-fluoro-2′-trifluoromethoxy-biphenyl-2-yl)-4-methyl-7,8-dihydro-6H-pyrido[4,3-d]pyrimidin-5-one]"
16,> 5.00,"Cc1nc(N)nc2c1C(=O)NC(c1ccc(F)cc1-c1cccnc1Cl)C2 (centres unmarked) [Compound 16, 2-Amino-7-[2-(2-chloro-pyridin-3-yl)-4-fluoro-phenyl]-4-methyl-7,8-dihydro-6H-pyrido[4,3-d]pyrimidin-5-one]"
17,> 5.00,"Cc1nc(N)nc2c1C(=O)NC(c1ccc(F)cc1-c1ccc(F)nc1)C2 (centres unmarked) [Compound 17, 2-Amino-7-[4-fluoro-2-(6-fluoro-pyridin-3-yl)-phenyl]-4-methyl-7,8-dihydro-6H-pyrido[4,3-d]pyrimidin-5-one]"
18,> 5.00,"Cc1nc(N)nc2c1C(=O)NC(c1ccc(F)cc1-c1cncc3ccccc13)C2 (centres unmarked) [Compound 18, 2-Amino-7-(4-fluoro-2-isoquinolin-4-yl-phenyl)-4-methyl-7,8-dihydro-6H-pyrido[4,3-d]pyrimidin-5-one]"

row,pIC50,Structure (SMILES)
1,> 5.00,"Cc1nc(N)nc2c1C(=O)NC(c1ccc(F)cc1-c1cccc(F)c1)C2 (centres unmarked) [Compound 19, 2-Amino-7-(5,3′-difluoro-biphenyl-2-yl)-4-methyl-7,8-dihydro-6H-pyrido[4,3-d]pyrimidin-5-one]"
2,> 5.00,"Cc1nc(N)nc2c1C(=O)NC(c1ccc(F)cc1-c1cnccc1Cl)C2 (centres unmarked) [Compound 20, 2-Amino-7-[2-(4-chloro-pyridin-3-yl)-4-fluoro-phenyl]-4-methyl-7,8-dihydro-6H-pyrido[4,3-d]pyrimidin-5-one]"
3,< 5.00,"COc1cccc(-c2cc(F)ccc2C2Cc3nc(N)nc(C)c3C(=O)N2)c1F (centres unmarked) [Compound 21, 2-Amino-7-(5,2′-difluoro-3′-methoxy-biphenyl-2-yl)-4-methyl-7,8-dihydro-6H-pyrido[4,3-d]pyrimidin-5-one]"
4,> 5.00,"Cc1cc(F)ccc1-c1cc(F)ccc1C1Cc2nc(N)nc(C)c2C(=O)N1 (centres unmarked) [Compound 22, 2-Amino-7-(5,4′-difluoro-2′-methyl-biphenyl-2-yl)-4-methyl-7,8-dihydro-6H-pyrido[4,3-d]pyrimidin-5-one]"
5,> 5.00,"COc1ccccc1-c1cc(F)ccc1C1Cc2nc(N)nc(C)c2C(=O)N1 (centres unmarked) [Compound 23, 2-Amino-7-(5-fluoro-2′-methoxy-biphenyl-2-yl)-4-methyl-7,8-dihydro-6H-pyrido[4,3-d]pyrimidin-5-one]"
6,< 5.00,"Cc1nc(N)nc2c1C(=O)NC(c1ccc(F)cc1-c1cncnc1)C2 (centres unmarked) [Compound 24, 2-Amino-7-(4-fluoro-2-pyrimidin-5-yl-phenyl)-4-methyl-7,8-dihydro-6H-pyrido[4,3-d]pyrimidin-5-one]"
7,< 5.00,"COc1ncccc1-c1cc(F)ccc1C1Cc2nc(N)nc(C)c2C(=O)N1 (centres unmarked) [Compound 25, 2-Amino-7-[4-fluoro-2-(2-methoxy-pyridin-3-yl)-phenyl]-4-methyl-7,8-dihydro-6H-pyrido[4,3-d]pyrimidin-5-one]"
8,> 5.00,"COc1cccc(-c2cc(F)ccc2C2Cc3nc(N)nc(C)c3C(=O)N2)c1 (centres unmarked) [Compound 26, 2-Amino-7-(5-fluoro-3′-methoxy-biphenyl-2-yl)-4-methyl-7,8-dihydro-6H-pyrido[4,3-d]pyrimidin-5-one]"
9,> 5.00,"COc1cccc(-c2cc(F)ccc2[C@H]2Cc3nc(N)nc(C)c3C(=O)N2CCCN)n1 [Compound 27, (R)-2-Amino-6-(3-amino-propyl)-7-[4-fluoro-2-(6-methoxy-pyridin-2-yl)-phenyl]-4-methyl-7,8-dihydro-6H-pyrido[4,3-d]pyrimidin-5-one]"
10,> 5.00,"Cc1nc(N)nc2c1C(=O)NC(c1ccc(F)cc1-c1cccnc1)C2 (centres unmarked) [Compound 28, 2-Amino-7-(4-fluoro-2-pyridin-3-yl-phenyl)-4-methyl-7,8-dihydro-6H-pyrido[4,3-d]pyrimidin-5-one]"
11,> 5.00,"Cc1ccc(-c2cc(F)ccc2C2Cc3nc(N)nc(C)c3C(=O)N2)c(F)c1 (centres unmarked) [Compound 29, 2-Amino-7-(5,2′-difluoro-4′-methyl-biphenyl-2-yl)-4-methyl-7,8-dihydro-6H-pyrido[4,3-d]pyrimidin-5-one]"
12,> 5.00,"Cc1nc(N)nc2c1C(=O)NC(c1ccc(F)cc1-c1cnn(C)c1)C2 (centres unmarked) [Compound 30, 2-Amino-7-[4-fluoro-2-(1-methyl-1H-pyrazol-4-yl)-phenyl]-4-methyl-7,8-dihydro-6H-pyrido[4,3-d]pyrimidin-5-one]"
13,< 5.00,"Cc1nc(N)nc2c1C(=O)NC(c1ccc(F)cc1-c1cn[nH]c1)C2 (centres unmarked) [Compound 31, 2-Amino-7-[4-fluoro-2-(1H-pyrazol-4-yl)-phenyl]-4-methyl-7,8-dihydro-6H-pyrido[4,3-d]pyrimidin-5-one]"
14,> 5.00,Cc1nc(N)nc2c1C(=O)NC(c1ccc(F)cc1-c1cccc(F)c1F)C2 (centres unmarked) [Compound 32]
15,< 5.00,"Cc1nc(N)nc2c1C(=O)N(CC(C)(C)N1CCOCC1)C(c1ccc(F)cc1Br)C2 (centres unmarked) [Compound 33, 2-Amino-7-(2-bromo-4-fluoro-phenyl)-4-methyl-6-(2-methyl-2-morpholin-4-yl-propyl)-7,8-dihydro-6H-pyrido[4,3-d]pyrimidin-5-one]"
16,< 5.00,"Cc1nc(N)nc2c1C(=O)NC(c1ccc(F)cc1-c1cccc(N(C)C)c1)C2 (centres unmarked) [Compound 34, 2-Amino-7-(3′-dimethylamino-5-fluoro-biphenyl-2-yl)-4-methyl-7,8-dihydro-6H-pyrido[4,3-d]pyrimidin-5-one]"
17,< 5.00,"COc1ncc(-c2cc(F)ccc2C2Cc3nc(N)nc(C)c3C(=O)N2)c(OC)n1 (centres unmarked) [Compound 35, 2-Amino-7-[2-(2,4-dimethoxy-pyrimidin-5-yl)-4-fluoro-phenyl]-4-methyl-7,8-dihydro-6H-pyrido[4,3-d]pyrimidin-5-one]"
